Values quoted from earlier work in patent publication US12358889B2, “Vaporizable alkaloid compositions and methods of use thereof” (Ready Mix Naturals, LLC, priority 2023, dated 2025).

How the values were obtained:
[1] = target: T1, TRPV2 (Homo sapiens, UniProt Q9Y5S1); conditions: among phytocannabinoids
T1 sequence (Q9Y5S1 1-764): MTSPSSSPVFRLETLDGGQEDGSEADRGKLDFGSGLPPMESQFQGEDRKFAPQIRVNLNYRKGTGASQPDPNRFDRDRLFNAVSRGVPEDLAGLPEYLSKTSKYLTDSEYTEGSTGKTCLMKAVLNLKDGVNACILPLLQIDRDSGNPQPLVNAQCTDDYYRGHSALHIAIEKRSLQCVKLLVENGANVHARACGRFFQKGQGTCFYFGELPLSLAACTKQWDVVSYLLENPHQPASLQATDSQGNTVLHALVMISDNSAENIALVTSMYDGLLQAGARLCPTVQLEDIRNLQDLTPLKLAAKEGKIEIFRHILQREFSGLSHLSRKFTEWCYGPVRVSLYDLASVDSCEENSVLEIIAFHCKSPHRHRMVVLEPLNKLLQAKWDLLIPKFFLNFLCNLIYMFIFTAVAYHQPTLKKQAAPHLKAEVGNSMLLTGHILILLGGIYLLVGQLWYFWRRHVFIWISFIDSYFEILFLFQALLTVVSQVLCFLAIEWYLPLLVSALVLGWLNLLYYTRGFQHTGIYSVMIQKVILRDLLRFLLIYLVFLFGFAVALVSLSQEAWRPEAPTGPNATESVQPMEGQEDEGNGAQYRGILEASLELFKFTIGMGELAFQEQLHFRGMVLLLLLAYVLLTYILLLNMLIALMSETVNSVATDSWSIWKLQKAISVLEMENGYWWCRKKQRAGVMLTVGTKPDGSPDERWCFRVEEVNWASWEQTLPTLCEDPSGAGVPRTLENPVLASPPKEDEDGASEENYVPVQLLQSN

[2] = target: TRPA1 (Homo sapiens, UniProt O75762)
TRPA1, sequence (O75762 whole entry, species assumed): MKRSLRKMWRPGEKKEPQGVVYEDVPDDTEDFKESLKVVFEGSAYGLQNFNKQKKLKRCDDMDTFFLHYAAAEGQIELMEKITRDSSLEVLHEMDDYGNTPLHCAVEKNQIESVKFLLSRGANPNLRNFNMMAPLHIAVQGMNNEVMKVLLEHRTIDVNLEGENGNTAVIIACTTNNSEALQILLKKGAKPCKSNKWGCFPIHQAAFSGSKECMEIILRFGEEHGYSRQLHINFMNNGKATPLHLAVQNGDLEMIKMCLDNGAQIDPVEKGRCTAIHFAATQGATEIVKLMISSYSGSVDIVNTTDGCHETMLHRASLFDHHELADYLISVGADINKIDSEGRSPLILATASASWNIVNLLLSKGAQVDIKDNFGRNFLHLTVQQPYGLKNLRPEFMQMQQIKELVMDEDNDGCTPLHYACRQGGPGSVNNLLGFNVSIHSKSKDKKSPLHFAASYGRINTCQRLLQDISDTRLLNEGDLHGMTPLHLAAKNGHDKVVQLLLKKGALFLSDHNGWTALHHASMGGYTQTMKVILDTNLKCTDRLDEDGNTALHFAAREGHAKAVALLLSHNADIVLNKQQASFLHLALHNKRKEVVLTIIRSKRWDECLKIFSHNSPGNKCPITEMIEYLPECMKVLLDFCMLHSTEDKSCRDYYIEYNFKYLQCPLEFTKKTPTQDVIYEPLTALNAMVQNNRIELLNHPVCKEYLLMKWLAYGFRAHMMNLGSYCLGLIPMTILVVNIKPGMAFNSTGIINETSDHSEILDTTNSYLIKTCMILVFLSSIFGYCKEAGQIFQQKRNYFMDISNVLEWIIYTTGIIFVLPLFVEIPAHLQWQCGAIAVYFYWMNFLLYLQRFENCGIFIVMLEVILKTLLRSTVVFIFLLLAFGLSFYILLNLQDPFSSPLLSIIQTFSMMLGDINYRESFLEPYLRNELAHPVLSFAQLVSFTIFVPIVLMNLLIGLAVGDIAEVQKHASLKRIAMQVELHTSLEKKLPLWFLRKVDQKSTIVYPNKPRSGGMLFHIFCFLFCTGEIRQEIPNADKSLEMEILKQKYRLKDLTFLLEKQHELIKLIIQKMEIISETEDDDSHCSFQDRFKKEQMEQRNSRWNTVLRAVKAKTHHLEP

[3] = target: TRPV1 (Homo sapiens, UniProt Q8NER1); conditions: among phytocannabinoids
TRPV1, sequence (Q8NER1 whole entry, species assumed): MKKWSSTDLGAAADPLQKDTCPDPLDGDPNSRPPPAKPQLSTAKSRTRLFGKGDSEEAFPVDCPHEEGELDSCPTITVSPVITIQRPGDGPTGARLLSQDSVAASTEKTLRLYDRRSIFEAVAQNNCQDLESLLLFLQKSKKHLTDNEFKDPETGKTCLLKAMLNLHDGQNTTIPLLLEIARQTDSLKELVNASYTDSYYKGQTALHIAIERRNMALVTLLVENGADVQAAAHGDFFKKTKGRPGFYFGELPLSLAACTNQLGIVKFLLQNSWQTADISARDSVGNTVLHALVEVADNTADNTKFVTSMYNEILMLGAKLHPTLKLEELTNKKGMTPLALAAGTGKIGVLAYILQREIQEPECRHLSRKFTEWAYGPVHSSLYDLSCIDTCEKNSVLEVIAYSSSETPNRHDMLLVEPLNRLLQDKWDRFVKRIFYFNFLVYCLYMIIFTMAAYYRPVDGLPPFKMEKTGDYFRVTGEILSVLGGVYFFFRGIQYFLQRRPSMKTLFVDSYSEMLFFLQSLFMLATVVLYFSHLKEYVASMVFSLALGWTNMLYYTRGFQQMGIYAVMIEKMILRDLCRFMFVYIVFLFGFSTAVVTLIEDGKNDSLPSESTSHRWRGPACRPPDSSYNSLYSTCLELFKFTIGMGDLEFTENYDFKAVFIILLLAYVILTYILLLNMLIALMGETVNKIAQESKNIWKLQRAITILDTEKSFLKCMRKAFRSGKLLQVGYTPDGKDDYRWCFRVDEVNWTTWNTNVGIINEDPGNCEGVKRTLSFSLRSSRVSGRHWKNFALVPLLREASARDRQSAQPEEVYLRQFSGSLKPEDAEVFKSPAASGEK

SMILES | activation of TRPV2 [1] | activation of TRPA1 [2] | agonism of TRPV1 [3]
CCCCCc1cc(O)c2c(c1)OC(C)(C)[C@@H]1CCC(C)=C[C@@H]21 [Δ^9-THC, Δ^9-tetrahydrocannabinol] | most potent phytocannabinoid for activating TRPV2 | also activates TRPA1 | –
C=C(C)[C@@H]1CCC(C)=C[C@H]1c1c(O)cc(CCCCC)cc1O [CBD, cannabidiol] | – | – | most potent and efficacious phytocannabinoid agonist of TRPV1
CN1CCCC1c1cccnc1 (stereo not shown) [nicotine] | – | known activator of TRPA1 | –
